Experimental data from ChEMBL document CHEMBL3112568, “Synthesis, antifungal activities and molecular docking studies of novel 2-(2,4-difluorophenyl)-2-hydroxy-3-(1H-1,2,4-triazol-1-yl)propyl dithiocarbamates” (2014).
Values after ≈ are worked out from the molar mass of the structure shown.

Assays:
Type in all cases: functional
[1] = tested on: Candida parapsilosis; test: Antifungal activity against Candida parapsilosis by micro-broth dilution method; details: Lodderomyces parapsilosis
[2] = tested on: Nannizzia gypsea; test: Antifungal activity against Microsporum gypseum by micro-broth dilution method
[3] = tested on: Trichophyton rubrum; test: Antifungal activity against Trichophyton rubrum by micro-broth dilution method
[4] = tested on: Aspergillus fumigatus; test: Antifungal activity against Aspergillus fumigatus by micro-broth dilution method
[5] = tested on: Candida albicans; test: Antifungal activity against Candida albicans Y0109 after 24 hrs by micro-broth dilution method; details: Y0109, 24 h
[6] = tested on: Candida albicans; test: Antifungal activity against Candida albicans SC5314 after 24 hrs by micro-broth dilution method; details: SC5314, 24 h
[7] = tested on: Cryptococcus neoformans; test: Antifungal activity against Cryptococcus neoformans after 72 hrs by micro-broth dilution method
[8] = tested on: Nakaseomyces glabratus; test: Antifungal activity against Candida glabrata by micro-broth dilution method

Row | SMILES | MIC80 [1] [µg/mL] | MIC80 [2] [µg/mL] | MIC80 [3] [µg/mL] | MIC80 [4] [µg/mL] | MIC80 [5] [µg/mL] | MIC80 [6] [µg/mL] | MIC80 [7] [µg/mL] | MIC80 [8] [µg/mL]
1 | OC(CSC(=S)N1CCN(c2ccccc2)CC1)(Cn1cncn1)c1ccc(F)cc1F (racemic) | 0.25 (≈ 0.526 µM) | 2 (≈ 4.21 µM) | 2 (≈ 4.21 µM) | 4 (≈ 8.41 µM) | 0.25 (≈ 0.526 µM) | 0.25 (≈ 0.526 µM) | ≤ 0.125 | ≤ 0.125
2 | OC(CSC(=S)N1CCOCC1)(Cn1cncn1)c1ccc(F)cc1F (racemic) | 0.25 (≈ 0.624 µM) | 8 (≈ 20 µM) | 8 (≈ 20 µM) | 16 (≈ 40 µM) | ≤ 0.125 | ≤ 0.125 | 0.25 (≈ 0.624 µM) | ≤ 0.125
3 | CN(CCO)C(=S)SCC(O)(Cn1cncn1)c1ccc(F)cc1F (racemic) | ≤ 0.125 | 16 (≈ 41.2 µM) | 4 (≈ 10.3 µM) | > 64 | ≤ 0.125 | ≤ 0.125 | 8 (≈ 20.6 µM) | ≤ 0.125
4 | O=C1CCN(C(=S)SCC(O)(Cn2cncn2)c2ccc(F)cc2F)CC1 (racemic) | 1 (≈ 2.42 µM) | 32 (≈ 77.6 µM) | 2 (≈ 4.85 µM) | 8 (≈ 19.4 µM) | ≤ 0.125 | ≤ 0.125 | 2 (≈ 4.85 µM) | ≤ 0.125
5 | CN1CCN(C(=S)SCC(O)(Cn2cncn2)c2ccc(F)cc2F)CC1 (racemic) | 0.25 (≈ 0.605 µM) | 4 (≈ 9.67 µM) | 1 (≈ 2.42 µM) | 8 (≈ 19.3 µM) | ≤ 0.125 | ≤ 0.125 | 0.25 (≈ 0.605 µM) | ≤ 0.125
6 | CCN(CC)C(=S)SCC(O)(Cn1cncn1)c1ccc(F)cc1F (racemic) | 0.5 (≈ 1.29 µM) | 4 (≈ 10.3 µM) | 8 (≈ 20.7 µM) | 8 (≈ 20.7 µM) | ≤ 0.125 | ≤ 0.125 | 0.25 (≈ 0.647 µM) | ≤ 0.125
7 | CCCCNC(=S)SCC(O)(Cn1cncn1)c1ccc(F)cc1F (racemic) | 0.25 (≈ 0.647 µM) | > 64 | > 64 | > 64 | 0.5 (≈ 1.29 µM) | 0.5 (≈ 1.29 µM) | 64 (≈ 166 µM) | 16 (≈ 41.4 µM)
8 | OC(CSC(=S)NC1CC1)(Cn1cncn1)c1ccc(F)cc1F (racemic) | 1 (≈ 2.7 µM) | > 64 | 64 (≈ 173 µM) | > 64 | 1 (≈ 2.7 µM) | 1 (≈ 2.7 µM) | 64 (≈ 173 µM) | 8 (≈ 21.6 µM)
9 | CN(C/C=C/C#CC(C)(C)C)Cc1cccc2ccccc12 [TERBINAFINE] | 1 (≈ 3.43 µM) | 0.0625 (≈ 0.214 µM) | 0.0625 (≈ 0.214 µM) | 0.25 (≈ 0.858 µM) | 16 (≈ 54.9 µM) | 4 (≈ 13.7 µM) | 0.25 (≈ 0.858 µM) | 2 (≈ 6.86 µM)
10 | OC(CSC(=S)N1CCN(c2cccc(Cl)c2Cl)CC1)(Cn1cncn1)c1ccc(F)cc1F (racemic) | 1 (≈ 1.84 µM) | 16 (≈ 29.4 µM) | 0.5 (≈ 0.918 µM) | > 64 | ≤ 0.125 | 0.5 (≈ 0.918 µM) | 0.5 (≈ 0.918 µM) | 0.5 (≈ 0.918 µM)
11 | OC(Cn1cncn1)(Cn1cncn1)c1ccc(F)cc1F [FLUCONAZOLE] | 2 (≈ 6.53 µM) | 32 (≈ 104 µM) | 4 (≈ 13.1 µM) | > 64 | 0.25 (≈ 0.816 µM) | 0.25 (≈ 0.816 µM) | 1 (≈ 3.27 µM) | 2 (≈ 6.53 µM)
12 | Cc1ccccc1N1CCN(C(=S)SCC(O)(Cn2cncn2)c2ccc(F)cc2F)CC1 (racemic) | 1 (≈ 2.04 µM) | 16 (≈ 32.7 µM) | 2 (≈ 4.08 µM) | > 64 | ≤ 0.125 | 0.25 (≈ 0.511 µM) | 0.5 (≈ 1.02 µM) | 0.5 (≈ 1.02 µM)
13 | OC(CSC(=S)N1CCCCC1)(Cn1cncn1)c1ccc(F)cc1F (racemic) | 0.5 (≈ 1.25 µM) | 8 (≈ 20.1 µM) | 8 (≈ 20.1 µM) | 16 (≈ 40.2 µM) | ≤ 0.125 | ≤ 0.125 | ≤ 0.125 | ≤ 0.125
14 | OC(CSC(=S)N1CCN(c2ccc(Cl)cc2)CC1)(Cn1cncn1)c1ccc(F)cc1F (racemic) | 0.5 (≈ 0.98 µM) | 4 (≈ 7.84 µM) | 1 (≈ 1.96 µM) | 16 (≈ 31.4 µM) | ≤ 0.125 | ≤ 0.125 | ≤ 0.125 | 0.25 (≈ 0.49 µM)
15 | CC(C)NC(=S)SCC(O)(Cn1cncn1)c1ccc(F)cc1F (racemic) | 1 (≈ 2.68 µM) | > 64 | 64 (≈ 172 µM) | > 64 | 1 (≈ 2.68 µM) | 2 (≈ 5.37 µM) | 64 (≈ 172 µM) | 4 (≈ 10.7 µM)
16 | CCC(C)n1ncn(-c2ccc(N3CCN(c4ccc(OCC5COC(Cn6cncn6)(c6ccc(Cl)cc6Cl)O5)cc4)CC3)cc2)c1=O (stereo unspecified) [ITRACONAZOLE] | 8 (≈ 11.3 µM) | 4 (≈ 5.67 µM) | 4 (≈ 5.67 µM) | 8 (≈ 11.3 µM) | 8 (≈ 11.3 µM) | 4 (≈ 5.67 µM) | 4 (≈ 5.67 µM) | 1 (≈ 1.42 µM)
17 | CCCNC(=S)SCC(O)(Cn1cncn1)c1ccc(F)cc1F (racemic) | > 64 | > 64 | 32 (≈ 85.9 µM) | > 64 | 0.25 (≈ 0.671 µM) | 0.25 (≈ 0.671 µM) | 64 (≈ 172 µM) | 2 (≈ 5.37 µM)
